According to paper PMC6407204, “Oral administration of the cannabigerol derivative VCE-003.2 promotes subventricular zone neurogenesis and protects against mutant huntingtin-induced neurodegeneration” (Translational Neurodegeneration, 2019):
Where two headings read alike, the source gives them in different places.

Tests used:
[1] = Pharmacokinetics in rats, plasma and brain by LC-MS/MS; format: in vivo, Sprague Dawley rats; conditions: rat; for concentration at 24 h: brain at 24 h; for AUC(0-t) / Cmax / Tmax: plasma; for bioavailability: oral 50 mg/kg vs i.v. 10 mg/kg, dose-corrected AUCt ratio
Protocol: Six-week old male Sprague Dawley rats (Janvier Labs, France) were located in the rodent area of Eurofins ADME Bioanalyses (Vergèze, France) and housed under standard conditions (12-h light/dark cycle) in groups with access to food and water ad libitum. Each animal was identified by an ear tag and examined for general health and welfare. Process, treatment and euthanasia were conducted according to the current procedures in use at Eurofins ADME Bioanalyses. Animals were treated with a single intravenous bolus of VCE-003.2 (10 mg/Kg in DMSO) or with oral VCE-003.2 (50 mg/Kg in sesame oil). At the prescribed times, blood (0.5 ml) was collected using a capillary tube and plasma frozen at − 20 °C until analysis. After 24 h, the animals were anesthetized and perfused with 20 mL of saline solution directly into the heart to extract the maximal blood sample from the brain. Plasma samples (100 μl) were mixed with 300 μl of acetonitrile and after protein precipitation, analysis of VCE-003.2 content was performed using LC-MS/MS (3 animals per each time point). For brain samples, the tissues were homogenized with an Ultra-turrax® using UHQ water (1/1, w/w). 100 μl of each homogenate was mixed with 300 μl of acetonitrile and the mixture centrifuged for 5 min at 25,000 g. Brain homogenate supernatants were directly measured by LC-MS/MS. Previous studies have shown that there are not significant differences between mice and rats in the main pharmacokinetic parameters of different cannabinoids, including CBG [18]. As the dose used here was different between i.v. and oral routes of administration, bioavailability was calculated taking into account the dose as follows: [AUCt (oral)/dose (oral)]/[AUCt(i.v.)/dose(i.v.)].

[2] = Microsomal metabolic stability
Protocol: The final incubation volume was 25 μL. […] The reactions were stopped by the addition of 50 μL methanol containing internal standard at the appropriate time points. The incubation plates were centrifuged at 2500 rpm for 20 min at 4 °C to precipitate the protein. Following protein precipitation, the sample supernatants were analyzed using LC-MS/MS. From a plot of ln peak area ratio (compound peak area/internal standard peak area) against time, the gradient of the line was determined. Subsequently, half-life and intrinsic clearance was calculated using the equations below: Elimination rate constant (k) = (− gradient).

S. typhimurium TA98 = experiment: AMES reverse mutation assay, TA98; format: cell-based
Protocol: Supplementary file 40035_2019_148_MOESM4_ESM.pdf: Additional file 4: AMES Data Summary. AMES Experimental Procedure. Approximately ten million bacteria are exposed in triplicate to VCE-003-.2 (7.8, 15.6, 31.3, 62.5, 125 and 250 μg/ml), a negative control (vehicle) and a positive control for 90 min in medium containing a low concentration of histidine (sufficient for about 2 doublings). The cultures were then diluted into indicator medium lacking histidine and dispensed into 48 wells of a 384 well plate (micro-plate format, MPF). The plate was incubated for 48 h at 37 °C, and the number of wells showing growth were counted and compared to the vehicle control. An increase in the number of colonies of at least two-fold over baseline (mean + SD of the vehicle control) and a dose response indicates a positive response. […] Where indicated, S9 fraction from the livers of Aroclor 1254-treated rats was included in the incubation at a final concentration of 4.5%. An NADPH-regenerating system is also included to ensure a steady supply of reducing equivalents. The strains used in this study were S. typhimurium TA98 (hisD3052, rfa, uvrB/pKM10 for detection of frame-shift mutations) and S. typhimurium TA100 ([…], rfa, uvrB/pKM101 for detection of base-pair substitutions). VCE-003.2 was assessed for its mutagenic potential in the AMES reverse mutation assay. This test was performed in the absence and presence of S9 metabolic activation. […] The positive controls all behaved as expected. (PDF 568 kb)

liver = experiment: Hepatotoxicity of chronic administration, liver hematoxylin-eosin staining; format: in vivo; conditions: mouse, data not shown
Protocol: As VCE-003.2 was previously shown to exert a neuroprotective action in preclinical HD models, and considering its pro-neurogenic profile, we evaluated the pathophysiological impact and potential therapeutic value of VCE-003.2 after oral administration. Pharmacokinetic analyses were performed in rats after oral administration of VCE-003.2 (50 mg/kg) dissolved in sesame oil. Plasma VCE-003.2 levels peaked at 8 h (Tmax) and then slowly declined to basal levels. […] We also investigated some critical ADME/Tox parameters. […] We also determined the potential hepatotoxicity of chronic VCE-003.2 administration by hematoxylin-eosin staining. […] We also determined the impact of VCE-003.2 administration on peripheral biomarkers by quantifying the levels of cytokines and other soluble mediators.

[3] = system: C-reactive protein and pentraxins 2, 3; experiment: Plasma biomarkers, cytokine and adipokine proteome arrays; format: in vivo, C57BL/6 N mice; conditions: pooled plasma, oral treatment, htt94Q mice
Protocol: Plasma samples from wild-type and mutant huntingtin-expressing C57BL/6 N mice were pooled (n = 6 animals per group) and analyzed for cytokine and adipokine expression. The Proteome Profiler Mouse XL Cytokine Array and the Proteome Profiler Mouse Adipokine Array (R&D Systems) were used according to the manufacturer’s protocols to obtain protein expression profiles using 100 μl plasma samples. Spot density was determined using Quick Spots image analysis software (R&D Systems).
Supplementary file 40035_2019_148_MOESM5_ESM.pdf: Additional file 5: Effect of oral VCE-003.2 on plasmatic biomarkers. Plasma samples from the indicated groups of animals (n = 6) were pooled and subjected to mouse cytokine array (ARY028; R&D Systems) and mouse adipokine array (ARY013; R&D Systems) analysis. The relative expression of the indicated biomarkers is shown. (PDF 338 kb)

hERG channel [4] = target: T1, hERG channel (Homo sapiens, UniProt Q12809)
T1 sequence (Q12809 whole entry): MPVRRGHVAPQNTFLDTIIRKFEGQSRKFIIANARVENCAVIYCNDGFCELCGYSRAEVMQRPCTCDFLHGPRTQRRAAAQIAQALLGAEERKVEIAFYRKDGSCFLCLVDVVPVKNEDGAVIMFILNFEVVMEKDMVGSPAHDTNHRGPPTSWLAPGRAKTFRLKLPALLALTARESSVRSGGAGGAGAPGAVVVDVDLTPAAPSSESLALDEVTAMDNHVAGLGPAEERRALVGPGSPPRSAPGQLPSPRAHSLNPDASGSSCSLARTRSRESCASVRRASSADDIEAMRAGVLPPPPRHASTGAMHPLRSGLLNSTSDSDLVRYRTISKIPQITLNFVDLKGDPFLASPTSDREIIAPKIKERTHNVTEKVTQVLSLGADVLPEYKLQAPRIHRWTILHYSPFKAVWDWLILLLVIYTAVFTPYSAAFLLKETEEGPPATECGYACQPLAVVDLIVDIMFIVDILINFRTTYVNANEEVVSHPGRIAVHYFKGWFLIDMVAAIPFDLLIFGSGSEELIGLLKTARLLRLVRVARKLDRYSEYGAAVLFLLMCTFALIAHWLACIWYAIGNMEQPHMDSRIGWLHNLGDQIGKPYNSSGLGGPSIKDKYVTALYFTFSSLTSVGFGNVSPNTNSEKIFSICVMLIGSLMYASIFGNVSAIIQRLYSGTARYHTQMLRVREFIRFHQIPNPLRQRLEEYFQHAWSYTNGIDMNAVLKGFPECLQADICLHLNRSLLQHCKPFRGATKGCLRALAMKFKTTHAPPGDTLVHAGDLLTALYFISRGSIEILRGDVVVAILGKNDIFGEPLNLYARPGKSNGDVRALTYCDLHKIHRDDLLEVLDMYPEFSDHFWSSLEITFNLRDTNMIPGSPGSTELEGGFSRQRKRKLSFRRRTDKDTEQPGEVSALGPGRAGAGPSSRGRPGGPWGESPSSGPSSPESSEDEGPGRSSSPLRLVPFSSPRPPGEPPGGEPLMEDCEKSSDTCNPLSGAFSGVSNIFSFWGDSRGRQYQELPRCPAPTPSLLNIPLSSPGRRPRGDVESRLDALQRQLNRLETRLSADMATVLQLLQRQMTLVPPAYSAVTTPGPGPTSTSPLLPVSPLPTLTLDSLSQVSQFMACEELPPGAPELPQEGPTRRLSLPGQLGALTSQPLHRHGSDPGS

adipogenic = conditions: compared with full PPARγ-agonists; cited from earlier work
hERG channel [5] = target: T1, hERG channel; experiment: hERG channel inhibition, IonWorks HT electrophysiology in CHO-hERG cells
[6] = male, Sprague Dawley, in vivo, iv, single i.v. 10 mg/kg
[7] = male, Sprague Dawley, in vivo, single oral 50 mg/kg in sesame oil

CCCCCC1=C(NCC)C(=O)C(CC=C(C)CCC=C(C)C)=C(O)C1=O [VCE-003.2, 2-(3,7-dimethyl-octa-2,6-dienyl)-6-ethylamino-3-hydroxy-5-pentyl-(1,4) benzoquinone]
concentration at 24 h [1, 6]: 93.7 ± 37.7 ng/mL
AUC(0-t) [1, 6]: 475 µg·h/mL
Cmax [1, 6]: 83200 ng/mL
Tmax [1, 6]: 4.8 min
concentration at 24 h ([1]; male, Sprague Dawley, in vivo, single oral 50 mg/kg): 86.8 ± 34 ng/mL
AUC(0-t) [1, 7]: 327 µg·h/mL
Cmax [1, 7]: 20300 ng/mL
Tmax [1, 7]: 480 min
bioavailability ([1]; male, Sprague Dawley, in vivo, read-out: Bioavailability): 13.8%
bioavailability [1]: 13.77%
intrinsic clearance in vitro (in words) ([2]; human liver microsomes): rapid intrinsic clearance
half-life ([2]; human, microsomes, pH 7.4): 10.6 min
microsomal CLint ([2]; human, microsomes, pH 7.4): 131 µL/min/mg
AMES Result (S. typhimurium TA98; TA98, S9 no): Negative
AMES Result (S. typhimurium TA98; TA98, S9 yes): Negative
hepatotoxicity, liver histology (liver): did not show any evidence of fibrosis, steatosis, vacuolization, ballooning or inflammation
plasma neuroinflammation biomarkers increased by htt94Q (C-reactive protein, pentraxins 2, 3) [3]: reverted
hERG channel activity inhibition (in words) (hERG channel [4]): did not inhibit hERG channel activity
adipogenic effect (adipogenic): less adipogenic
IC50 (hERG channel [5]): > 25 µM
